Assay results from patent publication US9889180B2, “Method of treating cancer” (Agency for Science, Technology and Research, priority 2012, dated 2018).
“Also recorded” adds a separate entry of the source.

How the values were obtained:
Assay type in all cases: cell-based, human
[1] = system: IFNGR1 expression and STAT1 activation; assay: qRT-PCR and western blot of IFNGR1 and IFN signaling in MCF7 cells; settings: for IFNGR1 expression: ER+ luminal MCF7 cells
Procedure: (§1) Total RNA was isolated by using Trizol (Invitrogen) and purified with the RNeasy Mini Kit (Qiagen). The microarray hybridization was performed using the Illumina Gene Expression Sentrix BeadChip HumanRef-8_V3, and data analysis was performed by GeneSpring software from Agilent Technologies as described previously. The analyzed gene sets by GeneSpring were next subjected to Ingenuity Pathway Analysis (IPA) for gene ontology (GO) analysis. Reverse transcription and quantitative PCR assays were performed using High Capacity cDNA Archive kit and KAPA SyBr Fast qPCR kit (KAPA biosystems). For quantification of mRNA levels, 18S level was used as an internal control. All reactions were analyzed in an Applied Biosystems PRISM 7500 Fast Real-Time PCR system in 96-well plate format.
(§2) Western Blotting was performed as described previously. Briefly, Cells were scraped, collected, and lysed in RIPA buffer. To release histones from chromatin, cell lysates were further sonicated for 15 sec using a XL2000 Microson Ultrasonic Processor (Misonix). Equal amounts of protein (30 μg) were separated on SDS-polyacrylamide gels and transferred to PVDF membranes. The blots were probed with antibodies against EED (07-368), SUZ12 (07-379), trimethylated H3-K27 (07-449), Acetyl-Histone H3 (06-599), which were purchased from Upstate Biotechnology. IFNGR1 (GIR-94) and anti-IFI16 (1G7) were purchased from Santa Cruz. EZH2 phospho S21 (00388) was purchased from Bethyl Laboratories. EZH2 (AC22), P110α PI3K, p-AKT (T308), p-AKT (S473), pSTAT1Y701, total STAT1, Histone H3 (3H1), Beclin-1 and cleaved PARP were purchased from Cell Signaling. Myc and Actin were purchased from Roche Applied Science and Sigma-Aldrich, respectively.

DU145 cells = assay: FACS sub-G1 DNA analysis (apoptosis) in DU145 cells; settings: for apoptosis (sub-G1) after knockdown: siRNA knockdown in combination with IFN-γ
Procedure: For the assessment of cell death, cells were harvested in 70% ethanol. Fixed cells were stained with Propidium Iodide (P.I) (50 μg/mL). The stained cells were analyzed for DNA content by FACS in a FACSCalibur (Becton Dickinson Instrument). % of cell death was defined as the sub-G1 population quantified using the CellQuest software (Becton Dickinson). The percentage of dead cells or sub-G1 cells was calculated by comparing the results of each experiment to the results from DMSO-treated cells. Each assay was repeated a minimum of three times, with results reported as means+s.e.m.

[2] = system: IFN responsive genes (IFI16, IRF1, OAS1); assay: Quantitative PCR of IFN responsive genes in DU145 prostatospheres; settings: DZNep with IFN-γ
Procedure: as §1, with “format. Prostatospheres were generated according to protocols known to the skilled person in the art. […] 7 days old prostatospheres formed were stained with 4 μg/ml p-Iodonitrotetrazolium Violet (INT) overnight and were counted and analyzed using a GelCount™ automatic plate scanner (Oxford Optronics) and GelCount Version 0.025.1 software (Oxford Optronics). […]” for “format.”

[3] = system: IFNGR1 expression and IFN-γ-STAT1 signaling; assay: qRT-PCR and western blot of IFNGR1 expression and IFN-γ signaling in DU145 cells
Procedure: All cells were maintained at 37° C. with 5% CO2. Cells were grown until they were 80% confluent before they are treated the respective drugs. For drug treatment, DZNep and GSK126 were purchased from Pharmaron Inc. (Beijing, China), GSK343 was kindly provided by Chemical Probes of University of Toronto, 5′Aza, TSA and human recombinant IFN-γ was purchased from Sigma. For rescue experiment using IFNGR1 blocking antibody, the neutralizing antibody that specifically targets IFNGR1 (anti-CD119, GIR-208, BD Pharmingen) was added to the medium 4 hour prior to the addition of DZNep or/and IFN-γ. Total RNA was isolated by using Trizol (Invitrogen) and purified with the RNeasy Mini Kit (Qiagen). The microarray hybridization was performed using the Illumina Gene Expression Sentrix BeadChip HumanRef-8_V3, and data analysis was performed by GeneSpring software from Agilent Technologies as described previously. The analyzed gene sets by GeneSpring were next subjected to Ingenuity Pathway Analysis (IPA) for gene ontology (GO) analysis. Reverse transcription and quantitative PCR assays were performed using High Capacity cDNA Archive kit and KAPA SyBr Fast qPCR kit (KAPA biosystems). For quantification of mRNA levels, 18S level was used as an internal control. All reactions were analyzed in an Applied Biosystems PRISM 7500 Fast Real-Time PCR system in 96-well plate format. Western Blotting was performed as described previously. Briefly, Cells were scraped, collected, and lysed in RIPA buffer. To release histones from chromatin, cell lysates were further sonicated for 15 sec using a XL2000 Microson Ultrasonic Processor (Misonix). Equal amounts of protein (30 μg) were separated on SDS-polyacrylamide gels and transferred to PVDF membranes. The blots were probed with antibodies against EED (07-368), SUZ12 (07-379), trimethylated H3-K27 (07-449), Acetyl-Histone H3 (06-599), which were purchased from Upstate Biotechnology. IFNGR1 (GIR-94) and anti-IFI16 (1G7) were purchased from Santa Cruz. EZH2 phospho S21 (00388) was purchased from Bethyl Laboratories. EZH2 (AC22), P110α PI3K, p-AKT (T308), p-AKT (S473), pSTAT1Y701, total STAT1, Histone H3 (3H1), Beclin-1 and cleaved PARP were purchased from Cell Signaling. Myc and Actin were purchased from Roche Applied Science and Sigma-Aldrich, respectively.

IFNGR1 expression = assay: qRT-PCR of IFNGR1 in MDA-MB-231 cells; settings: ER− basal like MDA-MB-231 cells
Procedure: as §1
as §2, with “EZH2 phospho S21 (00388) was purchased from Bethyl Laboratories. EZH2 (AC22), P110α PI3K, p-AKT (T308), p-AKT (S473), pSTAT1Y701, total STAT1, Histone H3 (3H1), Beclin-1 and cleaved PARP were purchased from Cell Signaling. Myc and Actin were purchased from Roche Applied Science and Sigma-Aldrich, respectively.” left out

[4] = in response to IFN-γ stimulation

Compound | IFNGR1 expression ([1]; hydrochloride) | STAT1 activation and PARP cleavage ([1]; MCF-7 cells, DZNep co-treated with IFN-γ) | apoptosis (sub-G1) (DU145 cells; DZNep (2.5 μM) combined with increasing doses of IFN-γ, 3 days) | expression of IFN genes in prostatospheres [2] | expression of IFN genes ([3]; DZNep (2.5 μM) combined with IFN-γ) | STAT1 phosphorylation ([3]; DZNep (2.5 μM) combined with IFN-γ, 3 days) | IFNGR1 expression ([3]; DZNep (2.5 μM), 3 days, hydrochloride) | IFNAR1 expression ([3]; DZNep treatment) | IFNGR1 expression (IFNGR1 expression) | IFNGR1 expression [1] | apoptosis (sub-G1) after knockdown (DU145 cells) | apoptosis (sub-G1) after knockdown (DU145 cells; listed as siEZH2) | IFNGR1 protein expression after knockdown [3] | STAT1 phosphorylation and IFI16 expression after knockdown [3, 4] | activation of IFN genes after knockdown [3, 4]
Cl.Nc1nccc2c1ncn2[C@@H]1C=C(CO)[C@@H](O)[C@H]1O [DZNep, (−)-1-[(1R,4R,5S)-3-(Hydroxymethyl)-4,5-dihydroxy-2-cyclopenten-1-yl]4-aminoimidazo[4,5-c]pyridine hydrochloride] | induction of IFNGR1 at both mRNA and protein levels; also recorded: restored the IFNGR1 expression | increased STAT1 activation and PARP cleavage | synergistic induction of cell death | enhanced response to IFN-γ stimulation | strong inductions of IFN genes | strong inductions | induced the expression of IFNGR1; also recorded: induced a marked expression of IFNGR1 | did not change IFNAR1 expression | not seen | – | – | – | – | – | –
EZH2 knockdown: EZH2 siRNA: 5′-GACUCUGAAUGCAGUUGCU-3′ (SEQ ID NO: 1) (other strand not given here) | – | – | – | – | – | – | – | – | not seen | induction of IFNGR1 at both mRNA and protein levels | apoptosis induction | specifically enhances IFN-γ mediated cell death | restored the IFNGR1 protein expression | enhanced the STAT1 phosphorylation and the expression of IF116 | robust activation of IFN genes
